Test results published in patent publication US20170239173A1, “TRANSDERMAL ABSORPTION ENHANCER AND TRANSDERMAL ABSORPTION ENHANCEMENT AID” (ASAHI KASEI KABUSHIKI KAISHA, priority 2014, published 2017).
Where “and” joins values, the source holds several entries; their conditions need not be identical. Equal values may be shown once.

Assays:
[1] = Solubility / state of the active ingredient in the preparation (equimolar salt or enhancer); type: physicochemical; conditions: solubility of MZR in the equimolar salt of the basic compound a) with isostearic acid or linoleic acid
[2] = system: hairless mouse skin (Laboskin)
[3] = partition coefficient between water and 1-octanol; cited from earlier work

Structure (SMILES) | Log P [3] | also measured
CCn1cc[n+](C)c1.O=S(=O)([O-])C(F)(F)F | – | MZR dissolution [1]: Insoluble
COP(=O)([O-])OC.Cn1cc[n+](C)c1 | – | MZR dissolution [1]: Insoluble
CC(=O)O [Acetic acid] | – | Transdermal penetrability of MZR (hairless mouse) [2]: Not penetrated
Nc1ncnc2[nH]cnc12 [Adenine] | – | MZR dissolution [1]: Insoluble
N[C@H]1C(O)O[C@H](CO)[C@@H](O)[C@@H]1O (stereo partly drawn) [D-glucosamine] | −2.8 | –
CC(C)(S)[C@@H](N)C(=O)O [D-penicillamine] | −1.8 | –
CCCCCCCCCCCCCC(=O)OC(C)C [IPM, isopropyl myristate] | 7.2 | –
CC[C@H](C)[C@H](N)C(=O)O [L-Isoleucine] | (LogP = −3.69) | –
O=C1O[C@H]([C@@H](O)CO)C(O)=C1O [L-ascorbic acid] | −1.6 | –
C[N+](C)(C)C[C@H](O)CC(=O)[O-] [L-carnitine] | −0.2 | –
N[C@@H](CS)C(=O)O [L-cysteine] | −2.5 | –
CCCCC/C=C\C/C=C\CCCCCCCC(=O)O [Linoleic acid] | – | Transdermal penetrability of MZR (hairless mouse) [2]: Penetrated
CC(=O)N[C@H]1C(O)O[C@H](CO)[C@@H](O)[C@@H]1O (stereo partly drawn) [N-acetyl-D-glucosamine] | −1.7 | –
O=C(O)CCC(=O)O [Succinic acid] | (LogP = −0.6) | Transdermal penetrability of MZR (hairless mouse) [2]: Not penetrated
CC(O)CN(CC(C)O)CC(C)O (stereo not drawn) [TIPA] | – | MZR dissolution [1]: Insoluble
CCCCCCCC(=O)OCC(COC(=O)CCCCCCC)OC(=O)CCCCCCC [Tricaprylin, glycerin tricaprylate] | 8.9 | –
CC(=O)Nc1ccc(CC(=O)O)cc1 [actarit] | 0.4 | –
CC(=O)SC[C@@H](C)C(=O)N1CCC[C@H]1C(=O)N[C@@H](Cc1ccccc1)C(=O)O [alacepril] | 2.1 | –
C[C@H](N)C(=O)O [alanine] | −3 | –
NC(=O)NC1NC(=O)NC1=O (stereo not drawn) [allantoin] | −2.2 | –
CCOC(=O)C1=C(COCCN)NC(C)=C(C(=O)OC)C1c1ccccc1Cl (stereo not drawn) [amlodipine] | 3 | –
Nc1cc(-c2ccncc2)c[nH]c1=O [amrinone] | −0.2 | –
OC[C@H]1O[C@@H](Oc2ccc(O)cc2)[C@H](O)[C@@H](O)[C@@H]1O [arbutin] | −0.6 | –
CC(C)(C)NCC(O)CSc1nc(-c2ccc(C(N)=O)s2)cs1 (stereo not drawn) [arotinolol] | 2.3 | –

Structure (SMILES) | Log P [3] | also measured
O=C(O)CCCCCCCC(=O)O [azelaic acid] | 1.6 | –
COc1ccc(CCNCC(O)COc2cccc(C)c2)cc1OC (stereo not drawn) [bevantolol] | 3 | –
O=C(O)CCCC[C@@H]1SC[C@@H]2NC(=O)N[C@@H]21 [biotin] | 0.3 | –
CCCC(=O)N1CCCN(c2nc(N)c3cc(OC)c(OC)cc3n2)CC1 [bunazosin] | 2.2 | –
C[C@H](CS)C(=O)N1CCC[C@H]1C(=O)O [captopril] | 0.3 | –
C[C@@](Cc1ccc(O)c(O)c1)(NN)C(=O)O [carbidopa] | −2.2 | –
NS(=O)(=O)c1cc(C2(O)NC(=O)c3ccccc32)ccc1Cl (stereo not drawn) [chlorthalidone] | 0.9 | –
C[N+](C)(C)CCO [choline] | (LogP = −0.4 | Transdermal penetrability of MZR [2]: Penetrated
CCOC(=O)[C@H](CCc1ccccc1)N[C@H]1CCCN2CCC[C@@H](C(=O)O)N2C1=O [cilazapril] | 0.6 | –
Clc1cccc(Cl)c1N=C1NCCN1 [clonidine] | 1.6 | –
CCOC(=O)[C@H](CCc1ccccc1)N[C@@H](C)C(=O)N(CC(=O)O)C1Cc2ccccc2C1 [delapril] | 1.7 | –
COc1ccc(CCNC[C@H](O)c2ccc(O)cc2)cc1OC [denopamine] | 1.8 | –
CCOC(=O)Oc1ccc(CCNC(=O)[C@H](CCSC)NC(C)=O)cc1OC(=O)OCC [docarpamine] | 2.9 | –
NCCc1ccc(O)c(O)c1 [dopamine] | −1 | –
CCOC(=O)[C@H](CCc1ccccc1)N[C@@H](C)C(=O)N1CCC[C@H]1C(=O)O [enalapril] | −0.1 | –
COc1cc(C)nc(-n2nc(C)cc2OC)n1 [epirizole] | 1.3 | –
COC(=O)[C@@H]1CC2=CC(=O)CC[C@]2(C)[C@@]23O[C@@H]2C[C@@]2(C)[C@@H](CC[C@@]24CCC(=O)O4)[C@H]13 [eplerenone] | 1.4 | –
CC(O)(P(=O)(O)O)P(=O)(O)O [etidronic acid] | −3.7 | –
NC(N)=Nc1nc(CSCCC(N)=NS(N)(=O)=O)cs1 [famotidine] | −0.6 | –
N[C@@H](CCC(=O)N[C@@H](CS)C(=O)NCC(=O)O)C(=O)O [glutathione] | −4.5 | –
COc1ccccc1O [guaiacol] | 1.3 | –
N=C(N)NC(=O)Cc1c(Cl)cccc1Cl [guanfacine] | 2 | –
N[C@@H](Cc1c[nH]cn1)C(=O)O [histidine] | −3.2 | –
NNc1nncc2ccccc12 [hydralazine] | 0.7 | –

Structure (SMILES) | Log P [3] | also measured
Oc1ccc(O)cc1 [hydroquinone] | −0.6 | –
CCOC(=O)[C@H](CCc1ccccc1)N[C@@H](C)C(=O)N1C(=O)N(C)C[C@H]1C(=O)O [imidapril] | −0.7 | –
CC(C)NCC(O)c1ccc(O)c(O)c1 (stereo not drawn) [isoprenaline] | −0.6 | –
Cc1c(C(C)C)c(=O)n(-c2ccccc2)n1C [isopropylantipyrine] | 1.7 | –
O[C@@H]1CO[C@H]2[C@@H]1OC[C@@H]2O [isosorbide] | −1.4 | –
O=c1cc(CO)occ1O [kojic acid] | −0.9 | –
O=C(C[S+]([O-])Cc1ccco1)NC/C=C\COc1cc(CN2CCCCC2)ccn1 (stereo not drawn) [lafutidine] | 1.4 | –
Cc1c(OCC(F)(F)F)ccnc1C[S+]([O-])c1nc2ccccc2[nH]1 (stereo not drawn) [lansoprazole] | 2.8 | –
Cc1oncc1C(=O)Nc1ccc(C(F)(F)F)cc1 [leflunomide] | 2.6 | –
NCCCC[C@H](N[C@@H](CCc1ccccc1)C(=O)O)C(=O)N1CCC[C@H]1C(=O)O [lisinopril] | −2.9 and −3.0 | –
Nc1cc(N2CCCCC2)nc(N)[n+]1[O-] [loniten] | 1.2 | –
CN(CC1(C)CCCO1)S(=O)(=O)c1ccc(Cl)c(S(N)(=O)=O)c1 (stereo not drawn) [mefruside] | 0.9 | –
C[C@H]1C[C@@H]2[C@H]([C@@H](O)C[C@@]3(C)[C@H]2CC[C@]3(O)C(=O)CO)[C@@]2(C)C=CC(=O)C=C12 [methylprednisolone] | 1.9 | –
Cc1cc2c(cc1S(N)(=O)=O)S(=O)(=O)CCC2 [meticrane] | 0.5 | –
Cc1[nH]c(=O)c(C#N)cc1-c1ccncc1 [milrinone] | 0 | –
Nc1cc(N2CCCCC2)nc(N)[n+]1[O-] [minoxidil] | 1.2 | –
O=C(O)c1cccnc1 [nicotinic acid] | 0.4 | –
Cn1c(NCCN(CCO)CCCc2ccc([N+](=O)[O-])cc2)cc(=O)n(C)c1=O [nifekalant] | 1.1 | –
CNC(=C[N+](=O)[O-])NCCSCc1csc(CN(C)C)n1 [nizatidine] | 1.6 | –
CC(C)(CO)[C@@H](O)C(=O)NCCC(=O)O [pantothenic acid] | −1.1 | –
CCC[C@H](N[C@@H](C)C(=O)N1[C@H](C(=O)O)C[C@@H]2CCCC[C@@H]21)C(=O)OCC [perindopril] | 0.9 | –
Cc1ccc(N(CC2=NCCN2)c2cccc(O)c2)cc1 [phentolamine] | 2.6 | –
Cc1cccc(C)c1NC(=O)CC12CCCN1CCC2 [pilsicainide] | 2.7 | –
CN1CCN(CC(=O)N2c3ccccc3C(=O)Nc3cccnc32)CC1 [pirenzepine] | 0.1 | –

Structure (SMILES) | Log P [3] | also measured
CCN(CC)CCNC(=O)c1ccc(N)cc1 [procainamide] | 0.9 | –
CCOC(=O)[C@H](CCc1ccccc1)N[C@@H](C)C(=O)N1Cc2ccccc2C[C@H]1C(=O)O [quinapril] | 1.2 | –
OC[C@H]1O[C@H](OC[C@H]2O[C@H](O[C@]3(CO)O[C@H](CO)[C@@H](O)[C@@H]3O)[C@H](O)[C@@H](O)[C@@H]2O)[C@H](O)[C@@H](O)[C@H]1O [raffinose] | −5.8 | –
O=C(NC(Cc1cc(=O)[nH]c2ccccc12)C(=O)O)c1ccc(Cl)cc1 (stereo not drawn) [rebamipide] | 2.4 | –
Oc1cccc(O)c1 [resorcin] | 0.8 | –
O=P(O)(O)C(O)(Cc1cccnc1)P(=O)(O)O [risedronate] | −3.5 | –
CCCCc1ccc(O)cc1O [rucinol] | 2.4 | –
N[C@@H](CO)C(=O)O [serine] | −3.1 | –
CC(C)NCC(O)c1ccc(NS(C)(=O)=O)cc1 (stereo not drawn) [sotalol] | 0.2 | –
C=CC[C@@H]1/C=C(\C)C[C@H](C)C[C@H](OC)[C@H]2O[C@@](O)(C(=O)C(=O)N3CCCC[C@H]3C(=O)O[C@H](/C(C)=C/[C@@H]3CC[C@@H](O)[C@H](OC)C3)[C@H](C)[C@@H](O)CC1=O)[C@H](C)C[C@@H]2OC [tacrolimus] | 2.7 | –
CCOC(=O)[C@H](CCc1ccccc1)N[C@H]1CS[C@H](c2cccs2)CN(CC(=O)O)C1=O [temocapril] | 1 | –
COc1cc2nc(N3CCN(C(=O)C4CCCO4)CC3)nc(N)c2cc1OC (stereo not drawn) [terazosin] | 1.4 | –
NCCS(=O)(O)=S [thiotaurine] | −0.1 | –
c1ccc(CC2=NCCN2)cc1 [tolazoline] | 2.6 | –
Cc1cccc(Nc2ccncc2S(=O)(=O)NC(=O)NC(C)C)c1 [torasemide] | 2.7 | –
CCOC(=O)[C@H](CCc1ccccc1)N[C@@H](C)C(=O)N1[C@H](C(=O)O)C[C@H]2CCCC[C@@H]21 [trandolapril] | 2 | –
NC[C@H]1CC[C@H](C(=O)O)CC1 [tranexamic acid] | −2 | –
Nc1nc(N)c2nc(-c3ccccc3)c(N)nc2n1 [triamterene] | 1 | –
NS(=O)(=O)c1cc2c(cc1Cl)NC(C(Cl)Cl)NS2(=O)=O (stereo not drawn) [trichlormethiazide] | 0.6 | –
N[C@@H](Cc1c[nH]c2ccccc12)C(=O)O [tryptophan] | −1.1 | –
COc1ccccc1N1CCN(CCCNc2cc(=O)n(C)c(=O)n2C)CC1 [urapidil] | 1.5 | –
COc1ccc(C(=O)N2CCN(c3ccc4c(c3)CCC(=O)N4)CC2)cc1OC [vesnarinone] | 2.1 | –
